# Results from patent US20210347823A1, “METHODS OF PHYSICOCHEMICAL-GUIDED PEPTIDE DESIGN AND NOVEL PEPTIDES DERIVED THEREFROM” (Massachusetts Institute of Technology, priority 2018, published 2021).
# “Also recorded” adds a separate entry of the source.
# Columns and labels:
# [1] = system: P. aeruginosa strain PA14; experiment: Scarification skin infection mouse model; assay type: in vivo, female CD-1 mice
# Experimental: FIGS. 8A-8D. In vivo activity of Pol-CP—NH2 and its analogs. FIG. 8A. Schematic of the experimental design. Briefly, the back of mice was shaved and an abrasion was generated to damage the stratum corneum and the upper layer of the epidermis. Subsequently, an aliquot of 50 μL containing 5×10^7 CFU of P. aeruginosa in PBS was inoculated over each defined area. One day after the infection, peptides (4 μmol L^−1) were administered to the infected area. Animals were euthanized and the area of scarified skin was excised two and four days post-infection (FIG. 8B) homogenized using a bead beater for 20 minutes (25 Hz), and serially diluted for CFU quantification (****p<0.0001). FIG. 8C. Mouse body weight measurements throughout the experiment normalized by the body weight of non-infected mice. […] FIG. 8D. Longer experiment (four days) using a higher concentration (64 μmol L^−1) of peptides Pol-CP—NH2 and [Lys]'-Pol-CP—NH2 (****p<0.0001).
# Scarification Skin Infection Mouse Model. P. aeruginosa strain PA14 was grown to an optical density at 600 nm (OD600) of 1 in tryptic soy broth (TSB) medium. […] Animals were euthanized and the area of scarified skin was excised two and four days post-infection, homogenized using a bead beater for 20 minutes (25 Hz), and serially diluted for CFU quantification. […] Statistical significance was assessed using a one-way ANOVA.
# [2] = system: P. aeruginosa strain PA14; experiment: MIC assay (broth microdilution) against P. aeruginosa PA14; assay type: cell-based, Pseudomonas aeruginosa; details: P. aeruginosa PA14, 24 h, 37° C.
# Text: (§1) FIGS. 2A-2E. Design, physicochemical features and activity of Pol-CP—NH2 and Ala-scan analogs. FIG. 2A. Theoretical physicochemical properties of interest of the wild type and Ala-scan analogs, where H denotes hydrophobicity, μH is the hydrophobic moment, q represents the net charge and P/N is the ratio of polar/non-polar residues in the sequence. Top to bottom, left to right the sequences correspond to SEQ ID NOs: 1-13. FIG. 2B. Schematic of the in vitro biological activity experimental design. Briefly, 10^4 bacterial cells and serially diluted peptides (0-128 μmol L^−1) were added to a 96-well plate and incubated at 37° C. One day after the exposure, the solution in each well was measured in a microplate reader (600 nm) to check inhibition of bacteria compared to the untreated controls and presented as heat maps of antimicrobial activities (μmol L^−1) against four bacteria strains: E. coli strain BL21, S. aureus strain ATCC12600 and P. aeruginosa strains PA01, and PA14. Assays were performed in triplicates. FIG. 2C. Graph correlating MIC (μmol L^−1) averages vs H and (FIG. 2D) MIC (μmol L^−1) averages vs μH, where dots […] the dashed line show peptides with higher activity compared to the wild type, in which one can observe ranges of optimal activity in determined intervals of H and μH values. FIG. 2E. […]
# [3] = system: Escherichia coli strain BL21; experiment: MIC assay (broth microdilution) against E. coli BL21; assay type: cell-based; details: E. coli BL21, 24 h, 37° C.
# Text: as §1
# [4] = system: S. aureus strain ATCC12600; experiment: MIC assay (broth microdilution) against S. aureus ATCC12600; assay type: cell-based, Staphylococcus aureus; details: S. aureus ATCC12600, 24 h, 37° C.
# Text: as §1
Substance,"in vivo anti-infective activity (CFU) ([1]; 64 μmol L^−1, four days, listed as [Lys]^7-Pol-CP—NH2)","in vivo antimicrobial activity (bacterial load, CFU) ([1]; single dose of 4 μmol L^−1 one day after infection)",MIC [2],MIC [3],MIC [4]
"H-ILGTILKLLKSL-NH2 [Peptide 16, ILGTILKLLKSL-NH2]",nearly sterilized the infection; also recorded: virtually sterilizing abscess infections,most active,–,–,–
"H-ILGTILGLLKSL-NH2 [WT, ILGTILGLLKSL-NH2, reference compound]",–,–,64.0 µM,8.0 µM,64.0 µM
